Assay results from patent US20240269139A1, “COMPOUNDS FOR TARGETED PROTEIN DEGRADATION OF KINASES” (DANA-FARBER CANCER INSTITUTE, INC., priority 2020, published 2024).
Where “and” joins values, the source holds several entries; their conditions need not be identical. Equal entries are not always repeated. Where two headings read alike, the source gives them in different places.

Assays:
Assay type in all cases: cell-based
[1] = target: protein kinases (human kinome) (Homo sapiens, UniProt O43683); conditions: for logFC: BUB1 (O43683); for logFC BUB1 (O43683): direction down
[2] = target: protein kinases (human kinome) (Homo sapiens, UniProt P07947); conditions: YES1 (P07947)
[3] = target: protein kinases (human kinome) (Homo sapiens, UniProt Q07912); conditions: for logFC TNK2 (Q07912-1): direction down; for logFC TNK2: TNK2 (Q07912-1)
[4] = target: protein kinases (human kinome) (Homo sapiens, UniProt Q14289); conditions: for logFC: PTK2B (Q14289-1) protein abundance, degrader vs DMSO, down; for logFC PTK2B: accession Q14289-1, direction of change down
[5] = target: T1, protein kinases (human kinome) (Homo sapiens, UniProt P33981); conditions: for logFC TTK: Accession P33981
T1 sequence (P33981 1-857): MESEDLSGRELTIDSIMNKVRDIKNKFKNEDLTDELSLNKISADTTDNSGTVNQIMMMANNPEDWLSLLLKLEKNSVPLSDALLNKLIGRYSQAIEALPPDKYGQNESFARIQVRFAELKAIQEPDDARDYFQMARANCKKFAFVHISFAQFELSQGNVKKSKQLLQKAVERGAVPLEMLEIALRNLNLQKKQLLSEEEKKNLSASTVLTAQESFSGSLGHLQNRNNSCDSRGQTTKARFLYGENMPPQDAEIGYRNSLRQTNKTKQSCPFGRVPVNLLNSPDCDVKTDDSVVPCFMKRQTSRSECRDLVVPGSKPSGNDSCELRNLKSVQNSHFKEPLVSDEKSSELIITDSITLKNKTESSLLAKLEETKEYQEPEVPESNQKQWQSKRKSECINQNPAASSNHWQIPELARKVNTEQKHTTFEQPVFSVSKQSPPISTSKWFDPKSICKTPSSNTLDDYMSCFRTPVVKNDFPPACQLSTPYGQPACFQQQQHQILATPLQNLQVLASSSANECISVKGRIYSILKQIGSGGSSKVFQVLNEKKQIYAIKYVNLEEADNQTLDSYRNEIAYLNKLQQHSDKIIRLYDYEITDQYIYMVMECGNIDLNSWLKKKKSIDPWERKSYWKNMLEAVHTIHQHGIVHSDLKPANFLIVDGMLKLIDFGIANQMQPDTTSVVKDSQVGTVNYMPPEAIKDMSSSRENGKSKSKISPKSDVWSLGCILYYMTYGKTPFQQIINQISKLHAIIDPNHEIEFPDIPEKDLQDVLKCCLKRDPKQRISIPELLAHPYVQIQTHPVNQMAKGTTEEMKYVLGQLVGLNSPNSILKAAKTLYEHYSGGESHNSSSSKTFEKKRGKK

Sequence of protein kinases (human kinome) (Homo sapiens, UniProt Q07912) (Q07912 whole entry): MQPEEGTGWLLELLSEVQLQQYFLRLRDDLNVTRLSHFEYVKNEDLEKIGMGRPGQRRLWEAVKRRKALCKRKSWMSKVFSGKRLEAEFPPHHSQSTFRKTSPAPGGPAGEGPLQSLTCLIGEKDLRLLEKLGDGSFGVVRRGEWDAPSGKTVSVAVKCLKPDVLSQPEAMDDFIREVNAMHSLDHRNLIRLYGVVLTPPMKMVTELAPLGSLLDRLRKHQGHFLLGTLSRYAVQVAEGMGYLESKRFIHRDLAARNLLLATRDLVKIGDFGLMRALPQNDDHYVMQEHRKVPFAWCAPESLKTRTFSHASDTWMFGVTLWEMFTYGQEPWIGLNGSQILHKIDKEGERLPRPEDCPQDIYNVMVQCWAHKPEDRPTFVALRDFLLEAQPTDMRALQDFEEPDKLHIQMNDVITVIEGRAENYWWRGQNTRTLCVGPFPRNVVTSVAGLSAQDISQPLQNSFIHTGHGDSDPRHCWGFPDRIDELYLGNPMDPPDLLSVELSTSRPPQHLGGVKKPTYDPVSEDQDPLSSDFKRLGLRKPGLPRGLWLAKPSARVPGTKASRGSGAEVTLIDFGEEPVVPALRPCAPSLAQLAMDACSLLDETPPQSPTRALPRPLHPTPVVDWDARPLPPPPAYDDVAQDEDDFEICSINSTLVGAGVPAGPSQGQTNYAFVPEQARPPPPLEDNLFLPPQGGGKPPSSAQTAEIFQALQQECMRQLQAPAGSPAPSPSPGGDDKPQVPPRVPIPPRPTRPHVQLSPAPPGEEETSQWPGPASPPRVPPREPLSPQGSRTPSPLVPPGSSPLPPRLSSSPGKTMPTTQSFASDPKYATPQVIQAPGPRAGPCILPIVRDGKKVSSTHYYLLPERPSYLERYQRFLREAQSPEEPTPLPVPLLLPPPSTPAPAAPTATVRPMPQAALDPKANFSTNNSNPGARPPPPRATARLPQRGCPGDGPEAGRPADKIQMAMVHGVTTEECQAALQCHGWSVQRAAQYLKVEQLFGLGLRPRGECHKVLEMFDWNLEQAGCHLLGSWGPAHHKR
Sequence of protein kinases (human kinome) (Homo sapiens, UniProt O43683) (O43683 whole entry): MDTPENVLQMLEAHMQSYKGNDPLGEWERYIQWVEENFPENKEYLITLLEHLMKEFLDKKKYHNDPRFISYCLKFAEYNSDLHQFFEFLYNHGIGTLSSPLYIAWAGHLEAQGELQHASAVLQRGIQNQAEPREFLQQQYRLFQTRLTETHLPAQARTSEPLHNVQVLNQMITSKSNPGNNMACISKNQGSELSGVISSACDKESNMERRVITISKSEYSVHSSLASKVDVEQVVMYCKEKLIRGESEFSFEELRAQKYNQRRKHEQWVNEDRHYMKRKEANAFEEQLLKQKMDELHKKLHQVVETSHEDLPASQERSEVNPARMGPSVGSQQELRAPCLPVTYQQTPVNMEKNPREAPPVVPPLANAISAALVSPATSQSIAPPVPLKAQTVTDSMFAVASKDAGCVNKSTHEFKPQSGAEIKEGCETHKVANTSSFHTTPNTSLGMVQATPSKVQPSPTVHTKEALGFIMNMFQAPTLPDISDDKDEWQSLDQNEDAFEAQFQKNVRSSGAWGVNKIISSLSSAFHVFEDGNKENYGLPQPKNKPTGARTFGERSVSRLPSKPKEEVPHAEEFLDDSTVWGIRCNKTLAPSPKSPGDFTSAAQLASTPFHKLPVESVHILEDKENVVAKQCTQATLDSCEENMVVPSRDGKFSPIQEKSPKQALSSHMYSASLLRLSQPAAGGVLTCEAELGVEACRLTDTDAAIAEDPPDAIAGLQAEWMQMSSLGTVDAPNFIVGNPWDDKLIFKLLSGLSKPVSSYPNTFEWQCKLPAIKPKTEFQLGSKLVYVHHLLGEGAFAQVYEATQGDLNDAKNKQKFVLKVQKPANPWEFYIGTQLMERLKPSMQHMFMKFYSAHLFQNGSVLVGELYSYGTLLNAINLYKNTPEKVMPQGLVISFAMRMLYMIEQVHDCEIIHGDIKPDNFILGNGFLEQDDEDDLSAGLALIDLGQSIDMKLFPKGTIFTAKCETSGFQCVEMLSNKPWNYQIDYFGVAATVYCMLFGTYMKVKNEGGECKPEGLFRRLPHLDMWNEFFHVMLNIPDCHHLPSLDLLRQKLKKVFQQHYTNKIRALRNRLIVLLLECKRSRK
Sequence of protein kinases (human kinome) (Homo sapiens, UniProt P07947) (P07947 whole entry): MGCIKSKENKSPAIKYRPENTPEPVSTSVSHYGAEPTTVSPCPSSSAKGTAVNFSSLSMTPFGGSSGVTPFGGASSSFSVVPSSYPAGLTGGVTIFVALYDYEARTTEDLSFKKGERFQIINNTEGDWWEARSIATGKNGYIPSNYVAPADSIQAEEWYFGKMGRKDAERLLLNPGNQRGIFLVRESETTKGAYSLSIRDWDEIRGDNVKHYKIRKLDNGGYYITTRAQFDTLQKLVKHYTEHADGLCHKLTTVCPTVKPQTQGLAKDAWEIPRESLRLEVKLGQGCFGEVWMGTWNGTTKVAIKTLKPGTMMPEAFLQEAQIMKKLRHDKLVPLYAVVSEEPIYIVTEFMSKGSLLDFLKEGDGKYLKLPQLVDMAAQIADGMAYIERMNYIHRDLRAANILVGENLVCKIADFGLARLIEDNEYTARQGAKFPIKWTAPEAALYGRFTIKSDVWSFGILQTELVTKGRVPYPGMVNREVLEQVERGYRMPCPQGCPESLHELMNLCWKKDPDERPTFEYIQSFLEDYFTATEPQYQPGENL
Sequence of protein kinases (human kinome) (Homo sapiens, UniProt Q14289) (Q14289 whole entry): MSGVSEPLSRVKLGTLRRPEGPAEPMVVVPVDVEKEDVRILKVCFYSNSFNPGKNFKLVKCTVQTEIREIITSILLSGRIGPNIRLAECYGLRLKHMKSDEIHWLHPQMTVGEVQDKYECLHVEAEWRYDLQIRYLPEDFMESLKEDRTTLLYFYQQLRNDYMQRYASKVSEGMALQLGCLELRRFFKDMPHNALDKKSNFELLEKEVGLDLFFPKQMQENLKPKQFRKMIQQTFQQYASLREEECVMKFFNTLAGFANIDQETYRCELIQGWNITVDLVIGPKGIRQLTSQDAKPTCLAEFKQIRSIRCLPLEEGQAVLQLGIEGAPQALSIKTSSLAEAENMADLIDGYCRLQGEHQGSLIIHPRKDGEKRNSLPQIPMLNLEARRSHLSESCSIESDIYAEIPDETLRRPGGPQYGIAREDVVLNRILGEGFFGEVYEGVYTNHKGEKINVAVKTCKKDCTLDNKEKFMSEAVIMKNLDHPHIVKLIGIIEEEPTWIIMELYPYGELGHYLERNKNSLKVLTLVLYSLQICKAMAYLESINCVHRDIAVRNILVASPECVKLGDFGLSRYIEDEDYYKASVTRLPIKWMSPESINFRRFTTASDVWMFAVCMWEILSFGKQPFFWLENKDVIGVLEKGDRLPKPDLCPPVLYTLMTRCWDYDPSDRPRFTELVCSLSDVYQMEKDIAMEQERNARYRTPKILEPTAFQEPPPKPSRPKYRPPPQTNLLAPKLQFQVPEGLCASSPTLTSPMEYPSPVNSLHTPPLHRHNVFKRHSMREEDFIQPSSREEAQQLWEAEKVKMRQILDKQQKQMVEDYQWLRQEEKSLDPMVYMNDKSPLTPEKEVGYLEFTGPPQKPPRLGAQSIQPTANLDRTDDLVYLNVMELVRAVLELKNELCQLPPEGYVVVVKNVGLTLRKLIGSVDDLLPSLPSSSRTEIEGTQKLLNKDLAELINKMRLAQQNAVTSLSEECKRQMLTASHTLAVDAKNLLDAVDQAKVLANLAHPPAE

CC(C)S(=O)(=O)c1ccccc1Nc1nc(Nc2ccc(N3CCN(CCOCCOCCNC(=O)CNc4cccc5c4C(=O)N(C4CCC(=O)NC4=O)C5=O)CC3)cc2)ncc1Cl (centres unmarked) [TL12.186]
logFC ([1]; experiment wp131): −0.4983 | logFC ([1]; experiment wp137): −0.4422 | logFC BUB1 (O43683) ([1]; Experiment wp131): −0.4983 | logFC BUB1 (O43683) ([1]; Experiment wp137): −0.4422 | logFC ([2]; experiment wp131): −0.5437 | logFC ([2]; experiment wp131, direction down): −0.5437 | logFC TNK2 (Q07912-1) ([3]; Experiment wp131): −2.251 | logFC TNK2 (Q07912-1) ([3]; Experiment wp137): −1.575 | logFC TNK2 ([3]; experiment wp131): −2.251 | logFC TNK2 ([3]; experiment wp137): −1.575 | logFC [4]: −3.722 | logFC PTK2B ([4]; experiment wp016): −3.722

CC(C)S(=O)(=O)c1ccccc1Nc1nc(Nc2ccc(N3CCN(CCOCCNC(=O)CNc4cccc5c4C(=O)N(C4CCC(=O)NC4=O)C5=O)CC3)cc2)ncc1Cl (centres unmarked) [SK.3.91]
logFC ([1]; experiment wp133, 1 hr): −0.4907 | logFC ([1]; experiment wp133, 2 hr): −0.4456 | logFC ([1]; experiment wp133, 4 hr): −0.5963 | logFC BUB1 (O43683) ([1]; Experiment wp133, 1 hr): −0.4907 | logFC BUB1 (O43683) ([1]; Experiment wp133, 2 hr): −0.4456 | logFC BUB1 (O43683) ([1]; Experiment wp133, 4 hr): −0.5963 | logFC ([2]; experiment wp133, 4 hr): −0.5025 | logFC ([2]; experiment wp133, 4 hr, direction down): −0.5025 | logFC TNK2 (Q07912-1) ([3]; Experiment wp133, 2 hr): −1.053 | logFC TNK2 (Q07912-1) ([3]; Experiment wp133, 4 hr): −2.261 | logFC TNK2 ([3]; experiment wp133, 2 hr): −1.053 | logFC TNK2 ([3]; experiment wp133, 4 hr): −2.261 | logFC TTK ([5]; experiment wp103): −0.3267 | logFC TTK ([5]; experiment wp107): −0.4781 | logFC TTK ([5]; experiment wp133, 2 hr): −0.3833 | logFC TTK ([5]; experiment wp133, 4 hr): −0.5052 | logFC TTK (P33981) ([5]; experiment wp103): −0.3267 | logFC TTK (P33981) ([5]; experiment wp107): −0.4781 | logFC TTK (P33981) ([5]; experiment wp133, 2 hr): −0.3833 | logFC TTK (P33981) ([5]; experiment wp133, 4 hr): −0.5052 | logFC ([4]; 1 uM): −3.603 | logFC ([4]; 1 hr): −0.8056 and −1.043 | logFC ([4]; 2 hr): −2.027 and −2.105 | logFC PTK2B ([4]; experiment wp016, 1 uM): −3.603 | logFC PTK2B ([4]; experiment wp016): −3.824 | logFC PTK2B ([4]; experiment wp114): −1.885 | logFC PTK2B ([4]; experiment wp133, 1 hr): −0.8056 | logFC PTK2B ([4]; experiment wp133, 2 hr): −2.027 | logFC PTK2B ([4]; experiment wp133, 4 hr): −3.96 | logFC PTK2B ([4]; experiment wp160, 1 hr): −1.043 | logFC PTK2B ([4]; experiment wp160, 2 hr): −2.105 | logFC PTK2B ([4]; experiment wp160, 4 hr): −2.773
